The record followed here is patent US20040024024A1, “Aromatic sulfone hydroxamates and their use as protease inhibitors” (priority 2001, published 2004).

One assay addresses T1, Human recombinant MMP-13 (Homo sapiens, UniProt P45452).
T1 construct: made in house; host or cells: baculovirus / insect cells
Description: In vitro MMP inhibition, IC50 determination (fluorogenic substrate I). It counts as biochemical. The procedure, abridged:
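Fluorescence at 415 nm (excitation 328 nm) reports Gly-Leu cleavage of 4 μM quenched methoxycoumarin peptide substrate I. Human recombinant MMP-13, activated by trypsin or APMA, was incubated at room temperature with varied inhibitor concentrations in pH 7.5 Tris/NaCl/CaCl2 buffer; IC50 derived from reduced fluorescence.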

The target in a further assay is T2, Human recombinant MMP-2 (Homo sapiens, UniProt P08253).
T2 construct: made in house; host or cells: MMP-2-transfected p2AHT2 cells
T2 sequence (P08253 110-660): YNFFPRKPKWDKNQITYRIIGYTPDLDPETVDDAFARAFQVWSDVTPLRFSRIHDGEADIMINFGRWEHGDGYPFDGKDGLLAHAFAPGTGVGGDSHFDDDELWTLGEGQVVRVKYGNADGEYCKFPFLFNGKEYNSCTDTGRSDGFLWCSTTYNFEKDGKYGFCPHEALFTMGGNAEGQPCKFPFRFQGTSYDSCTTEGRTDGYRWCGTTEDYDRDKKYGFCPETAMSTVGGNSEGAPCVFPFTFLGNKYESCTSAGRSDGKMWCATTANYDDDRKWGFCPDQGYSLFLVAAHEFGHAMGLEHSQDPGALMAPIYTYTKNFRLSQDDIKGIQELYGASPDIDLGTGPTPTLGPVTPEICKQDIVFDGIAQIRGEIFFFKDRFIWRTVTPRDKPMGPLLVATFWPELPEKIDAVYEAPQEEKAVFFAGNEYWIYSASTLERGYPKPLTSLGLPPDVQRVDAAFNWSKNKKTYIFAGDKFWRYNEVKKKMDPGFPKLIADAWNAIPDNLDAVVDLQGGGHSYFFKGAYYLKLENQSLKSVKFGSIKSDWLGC
The description is as above. It is filed as biochemical. In outline: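 APMA- or trypsin-activated recombinant MMP-2 was incubated at room temperature with serial inhibitor dilutions in Tris buffer pH 7.5 (100 mM NaCl, 10 mM CaCl2, 0.05% Brij), with DMSO from 1% stocks, and 4 μM substrate I. Cleavage was read by fluorescence at 328/415 nm; IC50 was taken from the loss of fluorescence versus inhibitor concentration.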

[1] abbreviates: value outside parentheses (Ki in parenthesis).

As usually defined, the IC50 is the point on the concentration scale where inhibition reaches its midpoint.

Turning to `COc1ccc(OC)c(S(=O)(=O)NCC(CCl)Oc2ccc(S(=O)(=O)C3(C(=O)NO)CCOCC3)cc2)c1` (stereo not shown) [Example 485], the IC50 at Human recombinant MMP-13 (setting [1]) came to 64 nM; on Human recombinant MMP-2 (setting [1]), 4000 nM.
Regarding `COc1cc(SC)ccc1C(=O)NNC(=O)CCCOc1ccc(S(=O)(=O)C2(C(=O)NO)CCOCC2)cc1` [Example 314], the IC50 at Human recombinant MMP-13 (setting [1]) was 2.5 nM; at Human recombinant MMP-2 (setting [1]), 7.8 nM.
As to `COc1ccc(C(=O)NC(C)(C)CCOc2ccc(S(=O)(=O)C3(C(=O)NO)CCNCC3)cc2)cc1` [Example 225], the IC50 on Human recombinant MMP-13 (value outside parenthesis) turned out to be 17.8 nM; on Human recombinant MMP-2 (value outside parenthesis), 2330 nM.
For the molecule `CN(C)c1cccc(CCCOc2ccc(S(=O)(=O)C3(C(=O)NO)CCN(C4CC4)CC3)cc2)c1` [Example 613], the IC50 turned out to be 6.6 nM on Human recombinant MMP-13 (value outside parentheses) and 34.3 nM at Human recombinant MMP-2 (value outside parentheses).
For `O=C(NO)C1(S(=O)(=O)c2ccc(OCCn3nnc4ccccc4c3=O)cc2)CCOCC1` [Example 590], the IC50 on Human recombinant MMP-13 (value outside parentheses) amounted to 48 nM; at Human recombinant MMP-2 (value outside parentheses), 858 nM.
Consider `O=C(NO)C1(S(=O)(=O)c2ccc(OCCCSc3nc4c(Cl)cc(Cl)cc4o3)cc2)CCOCC1` [Example 407], for which the figures for the IC50 on Human recombinant MMP-13 (setting [1]) and at Human recombinant MMP-2 (setting [1]) were 25 nM and 285 nM, respectively.
Consider `N#Cc1ccc(C(=O)NCCCOc2ccc(S(=O)(=O)C3(C(=O)NO)CCOCC3)cc2)cc1` [Example 387], for which the half-maximal inhibitory concentration (IC50) is 2.2 nM on Human recombinant MMP-13 (setting [1]) and 83 nM at Human recombinant MMP-2 (setting [1]).
Regarding `O=C(NCCCOc1ccc(S(=O)(=O)C2(C(=O)NO)CCOCC2)cc1)c1ccc2ccccc2n1` [Example 389], the IC50 at Human recombinant MMP-13 (setting [1]) is 0.5 nM; on Human recombinant MMP-2 (setting [1]), 47 nM.
